Activity calls are given as the source filed them. The rule behind the calls is not given here.
Tests used:
[1] = target: T1, Programmed cell death protein 1/Programmed cell death 1 ligand 1 (Homo sapiens) (UniProt Q15116+Q9NZQ7); assay: (§1) Inhibition of PD-1/PD-L1 (unknown origin) interaction assessed as inhibition rate at 1 uM by HTRF assay relative to control; assay type: protein-complex assay
[2] = target: T1, Programmed cell death protein 1/Programmed cell death 1 ligand 1 (Homo sapiens); assay: Inhibition of PD-1/PD-L1 (unknown origin) interaction assessed as inhibition rate at 0.1 uM by HTRF assay relative to control; assay type: protein-complex assay
Histone deacetylase 3 [3] = target: T2, Histone deacetylase 3 (Homo sapiens, UniProt O15379); assay: Inhibition of human recombinant HDAC3 using Ac-Leu-Gly-Lys (Ac)-AMC as substrate at 0.1 uM preincubated for 10 mins followed by substrate addition and measured after 45 mins by TECAN microtiter plate reader analysis relative to control; details: time 55.0 min
Histone deacetylase 3 [4] = target: T2, Histone deacetylase 3; assay: Inhibition of human recombinant HDAC3 using Ac-Leu-Gly-Lys (Ac)-AMC as substrate at 1 uM preincubated for 10 mins followed by substrate addition and measured after 45 mins by TECAN microtiter plate reader analysis relative to control; details: time 55.0 min
[5] = target: Programmed cell death protein 1/Programmed cell death 1 ligand 1 (Homo sapiens, UniProt Q9NZQ7); assay: as §1; assay type: protein-complex assay
Histone deacetylase 3 [6] = target: T2, Histone deacetylase 3; assay: Inhibition of human recombinant HDAC3 using Ac-Leu-Gly-Lys (Ac)-AMC as substrate preincubated for 10 mins followed by substrate addition and measured after 45 mins by TECAN microtiter plate reader analysis
[7] = target: T3, Protein deacetylase HDAC6 (Homo sapiens, UniProt Q9UBN7); assay: Inhibition of human recombinant HDAC6 using Ac-Leu-Gly-Lys (Ac)-AMC as substrate preincubated for 10 mins followed by substrate addition and measured after 45 mins by TECAN microtiter plate reader analysis
T3 sequence (Q9UBN7 whole entry): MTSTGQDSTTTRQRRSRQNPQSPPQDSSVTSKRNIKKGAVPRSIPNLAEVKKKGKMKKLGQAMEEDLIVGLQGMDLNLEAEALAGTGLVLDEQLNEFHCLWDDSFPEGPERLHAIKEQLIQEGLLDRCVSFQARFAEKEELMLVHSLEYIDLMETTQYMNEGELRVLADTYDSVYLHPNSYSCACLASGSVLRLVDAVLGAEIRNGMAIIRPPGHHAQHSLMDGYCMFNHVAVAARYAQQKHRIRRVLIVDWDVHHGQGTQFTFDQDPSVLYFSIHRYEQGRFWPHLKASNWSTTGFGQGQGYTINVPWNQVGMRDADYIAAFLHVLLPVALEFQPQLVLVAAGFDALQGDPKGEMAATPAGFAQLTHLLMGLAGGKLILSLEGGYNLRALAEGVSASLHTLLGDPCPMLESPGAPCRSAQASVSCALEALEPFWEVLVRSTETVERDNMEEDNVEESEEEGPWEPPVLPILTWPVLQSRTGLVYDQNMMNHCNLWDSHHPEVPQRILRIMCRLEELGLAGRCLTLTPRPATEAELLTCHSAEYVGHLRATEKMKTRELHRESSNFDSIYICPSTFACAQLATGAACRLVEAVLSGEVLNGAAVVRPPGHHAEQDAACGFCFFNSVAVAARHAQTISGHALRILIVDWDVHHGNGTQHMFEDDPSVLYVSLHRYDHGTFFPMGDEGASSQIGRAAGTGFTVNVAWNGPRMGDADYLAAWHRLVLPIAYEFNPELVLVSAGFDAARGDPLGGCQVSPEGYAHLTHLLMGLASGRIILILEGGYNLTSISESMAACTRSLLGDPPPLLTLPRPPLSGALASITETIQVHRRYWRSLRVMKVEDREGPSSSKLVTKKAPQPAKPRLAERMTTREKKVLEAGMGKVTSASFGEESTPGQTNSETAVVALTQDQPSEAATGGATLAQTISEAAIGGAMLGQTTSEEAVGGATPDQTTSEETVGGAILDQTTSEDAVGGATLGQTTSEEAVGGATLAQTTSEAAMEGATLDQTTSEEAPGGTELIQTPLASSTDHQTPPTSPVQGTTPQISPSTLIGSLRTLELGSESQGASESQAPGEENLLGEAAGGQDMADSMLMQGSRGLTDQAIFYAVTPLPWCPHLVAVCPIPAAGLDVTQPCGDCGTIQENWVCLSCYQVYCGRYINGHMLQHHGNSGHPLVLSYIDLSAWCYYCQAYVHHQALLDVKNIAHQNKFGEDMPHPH

Histone deacetylase 8 = target: T4, Histone deacetylase 8 (Homo sapiens, UniProt Q9BY41); assay: Inhibition of human recombinant HDAC8 using Ac-Leu-Gly-Lys (Tfa)-AMC as substrate preincubated for 10 mins followed by substrate addition and measured after 45 mins by TECAN microtiter plate reader analysis
T4 sequence (Q9BY41 whole entry): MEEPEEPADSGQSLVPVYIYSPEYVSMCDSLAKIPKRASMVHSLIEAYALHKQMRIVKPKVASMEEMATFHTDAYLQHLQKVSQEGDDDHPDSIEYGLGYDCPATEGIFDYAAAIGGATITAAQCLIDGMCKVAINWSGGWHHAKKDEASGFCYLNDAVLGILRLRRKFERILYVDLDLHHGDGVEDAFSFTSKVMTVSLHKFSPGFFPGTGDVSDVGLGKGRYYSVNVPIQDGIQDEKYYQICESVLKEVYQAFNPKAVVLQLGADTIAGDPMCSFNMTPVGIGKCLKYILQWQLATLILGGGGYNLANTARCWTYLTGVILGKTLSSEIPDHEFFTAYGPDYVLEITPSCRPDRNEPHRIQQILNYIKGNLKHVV

Histone deacetylase 1 = Histone deacetylase 1 (Homo sapiens, UniProt Q13547); assay: Inhibition of human recombinant HDAC1 using Ac-Leu-Gly-Lys (Ac)-AMC as substrate preincubated for 10 mins followed by substrate addition and measured after 45 mins by TECAN microtiter plate reader analysis
HCT-116 = assay: Antiproliferative activity against human HCT-116 cells assessed as cell growth inhibition incubated for 48 hrs by MTT assay; assay type: functional, cell-based; details: HCT-116, 48 h
MDA-MB-231 = assay: Antiproliferative activity against human MDA-MB-231 cells assessed as cell growth inhibition incubated for 48 hrs by MTT assay; assay type: functional, cell-based; details: MDA-MB-231, 48 h
4T1 = assay: Antiproliferative activity against mouse 4T1 cells assessed as cell growth inhibition incubated for 48 hrs by MTT assay; assay type: functional, cell-based; details: 4T1, 48 h
A-375 = assay: Antiproliferative activity against human A-375 cells assessed as cell growth inhibition incubated for 48 hrs by MTT assay; assay type: functional, cell-based; details: A-375, 48 h
B16-F10 = assay: Antiproliferative activity against mouse B16-F10 cells assessed as cell growth inhibition incubated for 48 hrs by MTT assay; assay type: functional, cell-based; details: B16-F10, 48 h
[8] = target: T5, Histone deacetylase 3 (Mus musculus) (UniProt O88895); assay: Inhibition of HDAC3 in mouse B16-F10 cells assessed as upregulation of Ac-H3 level at 3 uM incubated for 24 hrs by Western blotting analysis; assay type: cell-based
T5 sequence (whole entry): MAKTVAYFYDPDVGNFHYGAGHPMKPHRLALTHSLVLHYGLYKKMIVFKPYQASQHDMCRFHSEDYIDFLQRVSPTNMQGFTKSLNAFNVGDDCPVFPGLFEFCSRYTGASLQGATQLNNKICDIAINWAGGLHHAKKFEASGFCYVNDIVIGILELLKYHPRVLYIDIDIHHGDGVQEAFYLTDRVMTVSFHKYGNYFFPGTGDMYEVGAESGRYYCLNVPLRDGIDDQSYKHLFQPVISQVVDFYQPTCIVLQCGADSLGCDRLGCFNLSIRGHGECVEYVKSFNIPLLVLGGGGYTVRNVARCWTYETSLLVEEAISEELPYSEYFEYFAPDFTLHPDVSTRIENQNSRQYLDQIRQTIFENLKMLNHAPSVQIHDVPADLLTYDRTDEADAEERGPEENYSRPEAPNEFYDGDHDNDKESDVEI

HepG2 = assay: Antiproliferative activity against human HepG2 cells assessed as cell growth inhibition incubated for 48 hrs by MTT assay; assay type: functional, cell-based; details: HepG2, 48 h

Histone deacetylase 1, sequence (Q13547 whole entry): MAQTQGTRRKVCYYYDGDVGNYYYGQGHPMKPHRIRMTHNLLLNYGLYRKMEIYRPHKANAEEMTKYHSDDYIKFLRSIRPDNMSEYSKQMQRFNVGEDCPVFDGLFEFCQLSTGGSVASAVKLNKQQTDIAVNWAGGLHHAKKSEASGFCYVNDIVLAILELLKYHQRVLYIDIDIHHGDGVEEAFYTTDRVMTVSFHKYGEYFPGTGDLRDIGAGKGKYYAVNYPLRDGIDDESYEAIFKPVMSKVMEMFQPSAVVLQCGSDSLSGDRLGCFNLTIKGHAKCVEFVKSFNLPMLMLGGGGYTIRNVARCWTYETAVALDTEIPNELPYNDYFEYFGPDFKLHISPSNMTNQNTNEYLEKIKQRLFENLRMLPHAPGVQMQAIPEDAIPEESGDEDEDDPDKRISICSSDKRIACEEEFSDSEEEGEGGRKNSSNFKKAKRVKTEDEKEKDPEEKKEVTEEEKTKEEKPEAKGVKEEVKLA
T2 sequence (O15379 whole entry): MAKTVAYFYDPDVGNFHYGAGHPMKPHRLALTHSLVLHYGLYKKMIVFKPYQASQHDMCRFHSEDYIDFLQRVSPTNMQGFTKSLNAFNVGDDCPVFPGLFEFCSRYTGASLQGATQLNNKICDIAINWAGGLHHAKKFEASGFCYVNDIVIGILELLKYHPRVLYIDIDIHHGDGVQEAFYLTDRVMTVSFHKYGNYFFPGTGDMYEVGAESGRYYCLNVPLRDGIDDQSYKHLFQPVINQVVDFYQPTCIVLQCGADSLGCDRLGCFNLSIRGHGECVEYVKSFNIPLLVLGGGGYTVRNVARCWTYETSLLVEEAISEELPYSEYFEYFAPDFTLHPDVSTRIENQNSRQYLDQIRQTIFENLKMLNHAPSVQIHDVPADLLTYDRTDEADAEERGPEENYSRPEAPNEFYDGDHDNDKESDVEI
Programmed cell death protein 1/Programmed cell death 1 ligand 1, sequence (Q15116 whole entry): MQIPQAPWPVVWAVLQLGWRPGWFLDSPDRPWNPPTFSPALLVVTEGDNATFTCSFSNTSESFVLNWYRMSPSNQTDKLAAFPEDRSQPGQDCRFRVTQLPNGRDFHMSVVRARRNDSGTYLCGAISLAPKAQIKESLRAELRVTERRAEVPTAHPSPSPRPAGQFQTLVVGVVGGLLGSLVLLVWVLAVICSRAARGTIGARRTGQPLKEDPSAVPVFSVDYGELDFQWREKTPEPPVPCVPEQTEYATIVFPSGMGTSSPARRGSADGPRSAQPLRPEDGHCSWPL
Programmed cell death protein 1/Programmed cell death 1 ligand 1, sequence (Q9NZQ7 whole entry): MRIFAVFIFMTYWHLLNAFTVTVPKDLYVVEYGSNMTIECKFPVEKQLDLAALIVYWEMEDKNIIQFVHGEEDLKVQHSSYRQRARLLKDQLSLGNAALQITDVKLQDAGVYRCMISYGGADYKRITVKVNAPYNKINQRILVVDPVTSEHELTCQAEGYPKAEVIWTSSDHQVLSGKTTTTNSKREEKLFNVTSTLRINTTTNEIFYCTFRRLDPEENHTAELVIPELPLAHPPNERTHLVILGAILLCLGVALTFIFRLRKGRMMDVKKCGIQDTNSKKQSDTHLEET

SMILES	inhibition (Histone deacetylase 3 [3]) [%]	inhibition (Histone deacetylase 3 [4]) [%]	inhibition [1] [%]	inhibition [2] [%]	other results
CCCNNC(=O)c1cnc(N2CCC(NCc3ccc(-c4cccc(-c5ccccc5)c4C)nc3OC)CC2)cn1	–	–	62.6	7.82	–
CCCNNC(=O)C1CCN(Cc2ccc(-c3cccc(-c4ccccc4)c3C)nc2OC)CC1	33.2	71.3	82.7	21.7	–
CCCNNC(=O)c1ccc(CNCc2ccc(-c3cccc(-c4ccccc4)c3C)nc2OC)cc1	–	–	42.4	11.3	–
CCCNNC(=O)CCCCCCNCc1ccc(-c2cccc(-c3ccccc3)c2C)nc1OC	–	55.8	89.8	12.5	–
CCCNNC(=O)CC1CCCN(Cc2ccc(-c3cccc(-c4ccccc4)c3C)nc2OC)C1 (stereo not given)	–	–	59.1	4.75	–
CCCNNC(=O)c1cnc(N2CCC(NCc3ccc(-c4cccc(-c5ccccc5)c4C)nc3OC)CC2)nc1	–	< 50	71.7	3.6	–
CCCNNC(=O)c1cnc(N2CC(NCc3ccc(-c4cccc(-c5ccccc5)c4C)nc3OC)C2)cn1	–	–	54.5	13.5	–
CCCNNC(=O)c1ccc(NCc2ccc(-c3cccc(-c4ccccc4)c3C)nc2OC)c(C)c1	–	–	4.65	-0.25	–
CCCNNC(=O)c1cnc(N(C)CCN(C)Cc2ccc(-c3cccc(-c4ccccc4)c3C)nc2OC)nc1	–	–	28.8	5.96	–
CCCNNC(=O)CNCc1ccc(-c2cccc(-c3ccccc3)c2C)nc1OC	–	–	68.9	19.5	–
CCCNNC(=O)CC1CCN(Cc2ccc(-c3cccc(-c4ccccc4)c3C)nc2OC)CC1	–	< 50	89.4	25.7	–
CCCNNC(=O)c1cnc(N2CC(NCc3ccc(-c4cccc(-c5ccccc5)c4C)nc3OC)C2)nc1	–	–	68.2	17.8	–
CCCNNC(=O)c1ccc(NCc2ccc(-c3cccc(-c4ccccc4)c3C)nc2OC)cc1	–	–	7.61	1.83	–
CCCNNC(=O)c1ccc(NCCNCc2ccc(-c3cccc(-c4ccccc4)c3C)nc2OC)cc1	–	–	11.1	4.12	–
CCCNNC(=O)CCCCCNCc1ccc(-c2cccc(-c3ccccc3)c2C)nc1OC	53.6	82	92.7	37.3	IC50 [5]: 0.213 µM; IC50 (Histone deacetylase 3 [6]): 0.106 µM; IC50 [7]: > 10 µM; IC50 (Histone deacetylase 8): > 10 µM; IC50 (Histone deacetylase 1): 0.535 µM

Second part, led by results:

inhibition (Histone deacetylase 3 [3]) [%]	inhibition (Histone deacetylase 3 [4]) [%]	SMILES	inhibition [1] [%]	inhibition [2] [%]	other results
46.8	74.3	CCCNNC(=O)c1ccc(C(=O)NCCNCc2ccc(-c3cccc(-c4ccccc4)c3C)nc2OC)cc1	88.1	23.4	–
–	< 50	CCCNNC(=O)c1cnc(NCCCNCc2ccc(-c3cccc(-c4ccccc4)c3C)nc2OC)cn1	80.9	18.8	–
41.9	79.4	CCCNNC(=O)CCCCNCc1ccc(-c2cccc(-c3ccccc3)c2C)nc1OC	92.5	54.4	IC50 [5]: 0.0716 µM; IC50 (Histone deacetylase 3 [6]): 0.111 µM; IC50 [7]: > 10 µM; IC50 (Histone deacetylase 8): > 10 µM; IC50 (Histone deacetylase 1): 0.459 µM
–	< 50	CCCNNC(=O)c1cnc(NCCNCc2ccc(-c3cccc(-c4ccccc4)c3C)nc2OC)nc1	95.1	44.5	–
40.2	79.7	CCCNNC(=O)c1cnc(NCCNCc2ccc(-c3cccc(-c4ccccc4)c3C)nc2OC)cn1	94.4	46	IC50 (HCT-116): 14.7 µM; IC50 (MDA-MB-231): 13.9 µM; IC50 [5]: 0.0649 µM; IC50 (Histone deacetylase 3 [6]): 0.168 µM; IC50 (4T1): 7.48 µM; IC50 (A-375): 10.2 µM; IC50 [7]: > 10 µM; IC50 (Histone deacetylase 8): > 10 µM; IC50 (B16-F10): 6.93 µM; IC50 (Histone deacetylase 1): 2.15 µM; inhibition [8]: Active; IC50 (HepG2): 7.01 µM
36	67.2	CCCNNC(=O)CCNCc1ccc(-c2cccc(-c3ccccc3)c2C)nc1OC	92.4	58.8	–
38.5	69.5	CCCNNC(=O)c1ccc(NCCNCc2ccc(-c3cccc(-c4ccccc4)c3C)nc2OC)nn1	78.5	9.3	–

From ChEMBL document CHEMBL6109156, “Discovery of Dual PD-L1/HDAC3 Inhibitors for Tumor Immunotherapy” (J Med Chem, 2025)
